In brackets after ≈: the same amount, converted by molar mass.
Legend:
[1] = test system: Pseudomonas aeruginosa ATCC 12055; experiment: Antibiotic activity in vitro (MIC); format: cell-based; conditions: ATCC12055
[2] = test system: Staphylococcus aureus 10 B; experiment: Antibiotic activity in vitro (MIC); format: cell-based
Escherichia coli 2018 = experiment: Antibiotic activity in vitro (MIC); format: cell-based
Escherichia coli DC 2 = experiment: Antibiotic activity in vitro (MIC); format: cell-based; conditions: DC2
[3] = test system: Neisseria gonorrhoeae 1317/4; experiment: Antibiotic activity in vitro (MIC); format: cell-based
[4] = test system: Haemophilus influenzae NCTC 4560; experiment: Antibiotic activity in vitro (MIC); format: cell-based; conditions: NCTC4560
Proteus mirabilis 774 = experiment: Antibiotic activity in vitro (MIC); format: cell-based
[5] = test system: Bacteroides fragilis L 01; experiment: Antibiotic activity in vitro (MIC); format: cell-based; conditions: L01
[6] = test system: Streptococcus pneumoniae III/84; experiment: Antibiotic activity in vitro (MIC); format: cell-based
[7] = test system: Staphylococcus aureus A 124; experiment: Antibiotic activity in vitro (MIC); format: cell-based; conditions: A124
[8] = test system: Escherichia coli 205 R + TEM; experiment: Antibiotic activity in vitro (MIC); format: cell-based; conditions: read-out: in vitro MIC
Escherichia coli UB 1005 = experiment: Antibiotic activity in vitro (MIC); format: cell-based; conditions: UB1005
Proteus mirabilis 1219 = experiment: Antibiotic activity in vitro (MIC); format: cell-based
[9] = test system: Staphylococcus aureus 2999i+p+; experiment: Antibiotic activity in vitro (MIC); format: cell-based
Escherichia coli 16 = experiment: Antibiotic activity in vitro (MIC); format: cell-based
Escherichia coli B-1385 = experiment: Antibiotic activity in vitro (MIC); format: cell-based; conditions: B1385
[10] = test system: Pseudomonas aeruginosa 143738R; experiment: Antibiotic activity in vitro (MIC); format: cell-based
[11] = biological target: T1, dehydropeptidase from human kidneys (Homo sapiens, UniProt P16444); experiment: Stability towards the enzyme dehydropeptidase from human kidneys; format: in vitro ADME; conditions: for half-life period under the action of renal dehydropeptidase compared with compound B: comparison with the racemate compound B, in words; for half-life: renal dehydropeptidase, enzyme dehydropeptidase from human kidneys, read-out: t1/2 (half-life period), stability towards dehydropeptidase (converted)
T1 construct: dehydropeptidase from human kidneys; from tissue; host or cells: human kidneys
T1 sequence (P16444 17-411): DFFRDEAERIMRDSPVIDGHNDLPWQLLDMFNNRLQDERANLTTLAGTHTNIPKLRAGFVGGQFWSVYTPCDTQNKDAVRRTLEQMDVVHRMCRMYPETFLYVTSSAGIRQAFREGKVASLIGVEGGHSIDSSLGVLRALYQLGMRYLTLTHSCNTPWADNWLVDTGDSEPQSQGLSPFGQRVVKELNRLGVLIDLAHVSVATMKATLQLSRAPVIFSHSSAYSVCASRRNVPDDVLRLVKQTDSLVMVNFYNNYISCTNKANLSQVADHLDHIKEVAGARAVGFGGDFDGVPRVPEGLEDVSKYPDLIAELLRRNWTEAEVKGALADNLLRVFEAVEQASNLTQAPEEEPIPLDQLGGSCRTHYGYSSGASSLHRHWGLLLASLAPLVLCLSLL
Text: The stability of compounds A, B and C towards the enzyme dehydropeptidase from human kidneys is as follows (expressed in half-life periods t1/2): […]

[12] = test system: Enterobacter cloacae P 99; experiment: Antibiotic activity in vitro (MIC); format: cell-based; conditions: P99, read-out: in vitro MIC
[13] = test system: Streptococcus pyogenes Aronson 1129; experiment: Antibiotic activity in vitro (MIC); format: cell-based; conditions: ARONSON1129
[14] = test system: Klebsiella pneumoniae 327; experiment: Antibiotic activity in vitro (MIC); format: cell-based
[15] = test system: Neisseria meningitidis 1316; experiment: Antibiotic activity in vitro (MIC); format: cell-based
Escherichia coli 205 = experiment: Antibiotic activity in vitro (MIC); format: cell-based
[16] = test system: Staphylococcus aureus Wood 46; experiment: Antibiotic activity in vitro (MIC); format: cell-based; conditions: WOOD46
Proteus morganii 2359 = experiment: Antibiotic activity in vitro (MIC); format: cell-based; conditions: Morganella morganii
Proteus morganii 1518 = experiment: Antibiotic activity in vitro (MIC); format: cell-based; conditions: Morganella morganii
[17] = test system: Enterobacter cloacae ATCC 13047; experiment: Antibiotic activity in vitro (MIC); format: cell-based; conditions: ATCC13047
Serratia marcescens 344 = experiment: Antibiotic activity in vitro (MIC); format: cell-based
[18] = test system: Pseudomonas aeruginosa K 799/61; experiment: Antibiotic activity in vitro (MIC); format: cell-based; conditions: K799/61, read-out: in vitro MIC
Clostridium perfringens = experiment: microbe, parasite or virus in culture; format: cell-based; conditions: read-out: in vitro MIC
Proteus rettgeri 856 = experiment: Antibiotic activity in vitro (MIC); format: cell-based; conditions: Providencia rettgeri

C[C@@H](O)[C@H]1C(=O)N2C(C(=O)O)=C(CN)S[C@H]12 [compound A, (5R,6S)-2-aminomethyl-6-[(1'R)-1-hydroxyethyl]-2-penem-3-carboxylic acid]
MIC [1]: 0.05 µg/mL (≈ 0.205 µM)
MIC [2]: 0.05 µg/mL (≈ 0.205 µM)
MIC (Escherichia coli 2018): 2 µg/mL (≈ 8.19 µM)
MIC (Escherichia coli DC 2): 8 µg/mL (≈ 32.8 µM)
MIC [3]: 0.5 µg/mL (≈ 2.05 µM)
MIC [4]: 1 µg/mL (≈ 4.09 µM)
MIC (Proteus mirabilis 774): 1 µg/mL (≈ 4.09 µM)
MIC [5]: 0.5 µg/mL (≈ 2.05 µM)
MIC [6]: 0.1 µg/mL (≈ 0.409 µM)
MIC [7]: 0.1 µg/mL (≈ 0.409 µM)
MIC [8]: 4 µg/mL (≈ 16.4 µM)
MIC (Escherichia coli UB 1005): 4 µg/mL (≈ 16.4 µM)
MIC (Proteus mirabilis 1219): 2 µg/mL (≈ 8.19 µM)
MIC [9]: 0.05 µg/mL (≈ 0.205 µM)
MIC (Escherichia coli 16): 4 µg/mL (≈ 16.4 µM)
MIC (Escherichia coli B-1385): 4 µg/mL (≈ 16.4 µM)
MIC [10]: 0.5 µg/mL (≈ 2.05 µM)
half-life period under the action of renal dehydropeptidase compared with compound B [11]: considerably greater half-life period
MIC [12]: 4 µg/mL (≈ 16.4 µM)
MIC [13]: 0.2 µg/mL (≈ 0.819 µM)
MIC [14]: 2 µg/mL (≈ 8.19 µM)
MIC [15]: 0.5 µg/mL (≈ 2.05 µM)
MIC (Escherichia coli 205): 2 µg/mL (≈ 8.19 µM)
MIC [16]: 0.05 µg/mL (≈ 0.205 µM)
MIC (Proteus morganii 2359): 0.5 µg/mL (≈ 2.05 µM)
MIC (Proteus morganii 1518): 2 µg/mL (≈ 8.19 µM)
MIC [17]: 4 µg/mL (≈ 16.4 µM)
MIC (Serratia marcescens 344): 4 µg/mL (≈ 16.4 µM)
MIC [18]: 0.1 µg/mL (≈ 0.409 µM)
MIC (Clostridium perfringens): 2 µg/mL (≈ 8.19 µM)
MIC (Proteus rettgeri 856): 0.5 µg/mL (≈ 2.05 µM)

C[C@@H](O)[C@H]1C(=O)N2C(C(=O)O)=C(CN)S[C@H]12 (relative stereo) [compound B, (1'R,5R,6S+1'S,5S,6R)-2-aminomethyl-6-(1'hydroxyethyl) -2-penem-3-carboxylic acid, reference compound]
MIC [1]: 0.1 µg/mL (≈ 0.409 µM)
MIC [2]: 0.1 µg/mL (≈ 0.409 µM)
MIC (Escherichia coli 2018): 4 µg/mL (≈ 16.4 µM)
MIC (Escherichia coli DC 2): 16 µg/mL (≈ 65.5 µM)
MIC [3]: 1 µg/mL (≈ 4.09 µM)
MIC [4]: 2 µg/mL (≈ 8.19 µM)
MIC (Proteus mirabilis 774): 4 µg/mL (≈ 16.4 µM)
MIC [5]: 1 µg/mL (≈ 4.09 µM)
MIC [6]: 0.2 µg/mL (≈ 0.819 µM)
MIC [7]: 0.2 µg/mL (≈ 0.819 µM)
MIC [8]: 8 µg/mL (≈ 32.8 µM)
MIC (Escherichia coli UB 1005): 16 µg/mL (≈ 65.5 µM)
MIC (Proteus mirabilis 1219): 8 µg/mL (≈ 32.8 µM)
MIC [9]: 0.2 µg/mL (≈ 0.819 µM)
MIC (Escherichia coli 16): 8 µg/mL (≈ 32.8 µM)
MIC (Escherichia coli B-1385): 8 µg/mL (≈ 32.8 µM)
MIC [10]: 2 µg/mL (≈ 8.19 µM)
half-life [11]: 2.2 h
MIC [12]: 8 µg/mL (≈ 32.8 µM)
MIC [13]: 0.5 µg/mL (≈ 2.05 µM)
MIC [14]: 4 µg/mL (≈ 16.4 µM)
MIC [15]: 1 µg/mL (≈ 4.09 µM)
MIC (Escherichia coli 205): 8 µg/mL (≈ 32.8 µM)
MIC [16]: 0.1 µg/mL (≈ 0.409 µM)
MIC (Proteus morganii 2359): 2 µg/mL (≈ 8.19 µM)
MIC (Proteus morganii 1518): 4 µg/mL (≈ 16.4 µM)
MIC [17]: 16 µg/mL (≈ 65.5 µM)
MIC (Serratia marcescens 344): 8 µg/mL (≈ 32.8 µM)
MIC [18]: 0.2 µg/mL (≈ 0.819 µM)
MIC (Clostridium perfringens): 4 µg/mL (≈ 16.4 µM)
MIC (Proteus rettgeri 856): 1 µg/mL (≈ 4.09 µM)

NCC1=C(C(=O)O)N2C(=O)[C@H](CO)[C@H]2S1 [compound C, (5R,6S)-2-aminomethyl-6-hydroxymethyl-2-penem-3-carboxylic acid]
MIC [1]: 0.2 µg/mL (≈ 0.869 µM)
MIC [2]: 0.2 µg/mL (≈ 0.869 µM)
MIC (Escherichia coli 2018): 1 µg/mL (≈ 4.34 µM)
MIC (Escherichia coli DC 2): 4 µg/mL (≈ 17.4 µM)
MIC [3]: 1 µg/mL (≈ 4.34 µM)
MIC [4]: 1 µg/mL (≈ 4.34 µM)
MIC (Proteus mirabilis 774): 1 µg/mL (≈ 4.34 µM)
MIC [5]: 2 µg/mL (≈ 8.69 µM)
MIC [6]: 0.5 µg/mL (≈ 2.17 µM)
MIC [7]: 1 µg/mL (≈ 4.34 µM)
MIC [8]: 2 µg/mL (≈ 8.69 µM)
MIC (Escherichia coli UB 1005): 2 µg/mL (≈ 8.69 µM)
MIC (Proteus mirabilis 1219): 4 µg/mL (≈ 17.4 µM)
MIC [9]: 0.5 µg/mL (≈ 2.17 µM)
MIC (Escherichia coli 16): 2 µg/mL (≈ 8.69 µM)
MIC (Escherichia coli B-1385): 2 µg/mL (≈ 8.69 µM)
MIC [10]: 2 µg/mL (≈ 8.69 µM)
half-life period under the action of renal dehydropeptidase compared with compound B [11]: considerably greater half-life period
half-life [11]: 5.5 h
MIC [12]: 4 µg/mL (≈ 17.4 µM)
MIC [13]: 2 µg/mL (≈ 8.69 µM)
MIC [14]: 1 µg/mL (≈ 4.34 µM)
MIC [15]: 1 µg/mL (≈ 4.34 µM)
MIC (Escherichia coli 205): 1 µg/mL (≈ 4.34 µM)
MIC [16]: 0.2 µg/mL (≈ 0.869 µM)
MIC (Proteus morganii 2359): 1 µg/mL (≈ 4.34 µM)
MIC (Proteus morganii 1518): 2 µg/mL (≈ 8.69 µM)
MIC [17]: 4 µg/mL (≈ 17.4 µM)
MIC (Serratia marcescens 344): 2 µg/mL (≈ 8.69 µM)
MIC [18]: 0.5 µg/mL (≈ 2.17 µM)
MIC (Clostridium perfringens): 32 µg/mL (≈ 139 µM)
MIC (Proteus rettgeri 856): 0.5 µg/mL (≈ 2.17 µM)
